# Literature values in patent US20070020249A1, “COMPOSITIONS FOR PREVENTION AND TREATEMENT OF SYMPTOMS OF GASTROINTESTINAL DISTRESS” (priority 2005, published 2007).
# Conditions: humans; Auburn University study
substance,measurement,value
oxygen-coordinated chromium polynicotinate,"reduction of LDL cholesterol, average",14%
